Laboratory results published in US10149839B2, “Chemical compounds” (AstraZeneca AB, priority 2016, dated 2018).
In brackets after ≈: the same amount, converted by molar mass.

Tests used:
[1] = biological target: T1, Estrogen Receptor (ERα) in MCF-7 cells (Homo sapiens (Human), UniProt P03372); assay: MCF-7 ER down-regulation assay (immuno-fluorescence); assay type: cell-based; details: for IC50: 18-22 hours incubation; for % downregulation: shown in brackets where not >90%
[2] = biological target: estrogen receptor (ERα) in CAMA-1 cells (Homo sapiens (Human), UniProt P03372); assay: Western blotting assay, CAMA-1 cells; assay type: cell-based; details: compound 100 nM, 48 h, normalised to 100 nM fulvestrant (100%)
Chain of estrogen receptor (ERα) in CAMA-1 cells (P03372 whole entry): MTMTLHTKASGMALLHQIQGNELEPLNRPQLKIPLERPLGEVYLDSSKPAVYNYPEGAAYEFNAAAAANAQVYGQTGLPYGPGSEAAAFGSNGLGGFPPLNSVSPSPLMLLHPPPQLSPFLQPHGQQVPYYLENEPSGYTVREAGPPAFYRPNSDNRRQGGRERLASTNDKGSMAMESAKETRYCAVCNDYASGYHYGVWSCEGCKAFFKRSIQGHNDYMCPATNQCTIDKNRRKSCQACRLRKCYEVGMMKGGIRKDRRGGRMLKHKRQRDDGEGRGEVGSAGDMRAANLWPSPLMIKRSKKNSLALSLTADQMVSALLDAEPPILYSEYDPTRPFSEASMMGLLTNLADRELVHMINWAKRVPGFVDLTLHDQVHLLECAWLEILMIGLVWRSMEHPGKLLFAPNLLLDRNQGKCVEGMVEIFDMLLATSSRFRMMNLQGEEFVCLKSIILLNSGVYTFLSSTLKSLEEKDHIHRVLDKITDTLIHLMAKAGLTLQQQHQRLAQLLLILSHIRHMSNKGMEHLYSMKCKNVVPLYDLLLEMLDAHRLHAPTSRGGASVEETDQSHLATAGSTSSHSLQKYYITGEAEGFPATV

[3] = biological target: T1, Estrogen Receptor (ERα) in MCF-7 cells; assay: Western blotting assay, MCF-7 cells; assay type: cell-based; details: compound 100 nM, 48 h, normalised to 100 nM fulvestrant (100%)
[4] = Thermodynamic solubility (shake flask); assay type: physicochemical; details: aqueous phosphate buffer pH 7.4, 24 hours
[5] = Human plasma protein binding (equilibrium dialysis); assay type: in vitro ADME; details: dialysis 18 hours
physchem = details: 1-octanol/aqueous buffer, pH 7.4
[6] = Log D (shake flask, 1-octanol/aqueous buffer); details: pH 7.4, 1-octanol/aqueous buffer
[7] = aqueous phosphate buffer, 25 °C, pH 7.4, aqueous buffer, thermodynamic from solid

T1 sequence (P03372 whole entry): as above

IC50 [1] [nM]	CAMA1 Western % ER deg vs Fv [2] [%]	MCF7 Western % ER deg vs Fv [3] [%]	solubility at 24 h [4, 7] [µM]	Human plasma protein binding (% free) [5] [% free]	logD (physchem)	% downregulation [1]	solubility at 24 h ([4]; 25° C.) [µM]	LogD pH 7.4 [6]	Structure (SMILES)
0.43	75	88	227 (≈ 104 µg/mL)	1.3	3.3				C[C@@H]1Cc2c([nH]c3ccccc23)[C@@H](c2cnc(OCCNCCCF)cn2)N1CC(C)(C)F [Example 38, 3-fluoro-N-(2-((5-((1S,3R)-2-(2-fluoro-2-methylpropyl)-3-methyl-2,3,4,9-tetrahydro-1H-pyrido[3,4-b]indol-1-yl)pyrazin-2-yl)oxy)ethyl)propan-1-amine]
0.51	48	74	> 1000	17	2.3				COc1cc(OCCNCCCF)ncc1[C@@H]1c2[nH]c3ccccc3c2C[C@@H](C)N1CC1(F)COC1 [Example 7, 3-fluoro-N-(2-((5-((1R,3R)-2-((3-fluorooxetan-3-yl)methyl)-3-methyl-2,3,4,9-tetrahydro-1H-pyrido[3,4-b]indol-1-yl)-4-methoxypyridin-2-yl)oxy)ethyl)propan-1-amine]
0.14	0	64	4 (≈ 2.04 µg/mL)	<2.6	> 4.3				C[C@@H]1Cc2c([nH]c3ccccc23)[C@@H](c2c(F)cc(OCCNCCC(F)F)cc2F)N1CC(C)(C)F [Example 3, N-(2-(3,5-difluoro-4-((1R,3R)-2-(2-fluoro-2-methylpropyl)-3-methyl-2,3,4,9-tetrahydro-1H-pyrido[3,4-b]indol-1-yl)phenoxy)ethyl)-3,3-difluoropropan-1-amine]
0.17	90	85	577 (≈ 291 µg/mL)	2.3	3.1				C[C@@H]1Cc2c([nH]c3ccccc23)[C@@H](c2c(F)cc(NCCNCCCF)cc2F)N1CC1(F)COC1 [Example 44, N1-(3,5-difluoro-4-((1R,3R)-2-((3-fluorooxetan-3-yl)methyl)-3-methyl-2,3,4,9-tetrahydro-1H-pyrido[3,4-b]indol-1-yl)phenyl)-N2-(3-fluoropropyl)ethane-1,2-diamine]
0.24				0.47		(79%)	14 (≈ 7.3 µg/mL)	>4.1	C[C@@H]1Cc2c([nH]c3ccccc23)[C@@H](c2c(F)cc(OCC(CO)NCCCF)cc2F)N1CC(C)(C)F (single isomer, unassigned) [Example 52]
0.31	72	97	85 (≈ 42.7 µg/mL)	1.0	3.5				C[C@@H]1Cc2c([nH]c3ccccc23)[C@@H](c2c(F)cc(N(C)CCNCCCF)cc2F)N1CC1(F)CC1 [Example 45, N1-(3,5-difluoro-4-((1R,3R)-2-((1-fluorocyclopropyl)methyl)-3-methyl-2,3,4,9-tetrahydro-1H-pyrido[3,4-b]indol-1-yl)phenyl)-N2-(3-fluoropropyl)-N1-methylethane-1,2-diamine]
				0.41			53 (≈ 27.6 µg/mL)	3.8	COCC(C)(F)CN1[C@H](c2c(F)cc(OCCNCCCF)cc2F)c2[nH]c3ccccc3c2C[C@H]1C (single isomer, unassigned) [Example 51]
0.24	81	90	840 (≈ 419 µg/mL)	5.0	2.5				COc1cc(NCCNCCCF)ccc1[C@@H]1c2[nH]c3ccccc3c2C[C@@H](C)N1CC1(F)COC1 [Example 47, N1-(4-((1R,3R)-2-((3-fluorooxetan-3-yl)methyl)-3-methyl-2,3,4,9-tetrahydro-1H-pyrido[3,4-b]indol-1-yl)-3-methoxyphenyl)-N2-(3-fluoropropyl)ethane-1,2-diamine]
0.28	82	81	99 (≈ 48.2 µg/mL)	2.2	3.8				COc1cc(OCCNCCCF)cnc1[C@@H]1c2[nH]c3ccccc3c2C[C@@H](C)N1CC(C)(C)F [Example 35, 3-fluoro-N-(2-((6-((1S,3R)-2-(2-fluoro-2-methylpropyl)-3-methyl-2,3,4,9-tetrahydro-1H-pyrido[3,4-b]indol-1-yl)-5-methoxypyridin-3-yl)oxy)ethyl)propan-1-amine]
1.2	60	31	411 (≈ 196 µg/mL)	1.0	3.4				COc1nc(OCCNCCCF)ccc1[C@@H]1c2[nH]c3ccccc3c2C[C@@H](C)N1CC(F)F [Example 75, N-(2-((5-((1R,3R)-2-(2,2-difluoroethyl)-3-methyl-2,3,4,9-tetrahydro-1H-pyrido[3,4-b]indol-1-yl)-6-methoxypyridin-2-yl)oxy)ethyl)-3-fluoropropan-1-amine]
0.21	87	73	849 (≈ 430 µg/mL)	12	2.2				COc1cc(OCCNCCCF)ncc1[C@@H]1c2[nH]c3ccccc3c2C[C@@H](C)N1CC(F)(F)CO [Example 64, 2,2-difluoro-3-((1R,3R)-1-(6-(2-((3-fluoropropyl)amino)ethoxy)-4-methoxypyridin-3-yl)-3-methyl-1,3,4,9-tetrahydro-2H-pyrido[3,4-b]indol-2-yl)propan-1-ol]
0.38				2.7			65 (≈ 29.9 µg/mL)	3.2	C[C@@H]1Cc2c([nH]c3ccccc23)[C@@H](c2ccc(OCCNCCCF)cc2)N1C[C@H](F)CF (single isomer, unassigned) [Example 26]
0.64	31	61	10 (≈ 5.26 µg/mL)	0.9	3.6	(89%)			COCC(F)(F)CN1[C@H](c2c(F)cc(OCCNCCCF)cc2F)c2[nH]c3ccccc3c2C[C@H]1C [Example 14, N-(2-(4-((1R,3R)-2-(2,2-difluoro-3-methoxypropyl)-3-methyl-2,3,4,9-tetrahydro-1H-pyrido[3,4-b]indol-1-yl)-3,5-difluorophenoxy)ethyl)-3-fluoropropan-1-amine]
				1.8			149 (≈ 73.8 µg/mL)	3.1	C[C@@H]1Cc2c([nH]c3ccccc23)[C@@H](c2c(F)cc(OCCNCCCF)cc2F)N1CC(F)CF (single isomer, unassigned) [Example 16]
0.14	89	74	389 (≈ 192 µg/mL)	2.4	3.2				COc1cc(OCCNCCCF)ncc1[C@@H]1c2[nH]c3ccccc3c2C[C@@H](C)N1CC(F)(F)F [Example 41, 3-Fluoro-N-(2-((4-methoxy-5-((1R,3R)-3-methyl-2-(2,2,2-trifluoroethyl)-2,3,4,9-tetrahydro-1H-pyrido[3,4-b]indol-1-yl)pyridin-2-yl)oxy)ethyl)propan-1-amine]
0.093	74	88	952 (≈ 486 µg/mL)	2.3	2.6				C[C@@H]1Cc2c([nH]c3ccccc23)[C@@H](c2c(F)cc(NCCNCCCF)cc2F)N1CC(F)(F)CO [Example 46, 3-((1R,3R)-1-(2,6-difluoro-4-((2-((3-fluoropropyl)amino)ethyl)amino)phenyl)-3-methyl-1,3,4,9-tetrahydro-2H-pyrido[3,4-b]indol-2-yl)-2,2-difluoropropan-1-ol]
0.14	66	83	291 (≈ 142 µg/mL)	2.1	3.5				COc1cc(OCCNCCCF)ncc1[C@@H]1c2[nH]c3ccccc3c2C[C@@H](C)N1CC(C)(C)F [Example 36, 3-fluoro-N-(2-((5-((1R,3R)-2-(2-fluoro-2-methylpropyl)-3-methyl-2,3,4,9-tetrahydro-1H-pyrido[3,4-b]indol-1-yl)-4-methoxypyridin-2-yl)oxy)ethyl)propan-1-amine]
0.65				2.4		(85%)	639 (≈ 324 µg/mL)	2.7	C[C@@H]1Cc2c([nH]c3ccccc23)[C@@H](c2c(F)cc(OCCNCCCF)cc2F)N1CC(C)(F)CO (single isomer, unassigned) [Example 18]
0.14				0.55			23 (≈ 12 µg/mL)	>4.2	C[C@@H]1Cc2c([nH]c3ccccc23)[C@@H](c2c(F)cc(OCC(CO)NCCCF)cc2F)N1CC(C)(C)F (single isomer, unassigned) [Example 53]
